Assay results taken from paper PMC6057745, “The dual role of chloride in synaptic vesicle glutamate transport” (eLife, 2018).

What was measured:
VGLUT1 [1] = molecular target: T1, VGLUT1 (Rattus norvegicus, UniProt Q62634); experiment: whole endosome patch clamp, outward glutamate currents; format: biochemical
T1 construct: gene Slc17a7; full-length rat VGLUT1 fused to EGFP (pEGFP-N1); co-expressed with Rab5 Q79L-mCherry in HEK293T; whole endosome recording of isolated enlarged endosomes
T1 sequence (Q62634 1-560): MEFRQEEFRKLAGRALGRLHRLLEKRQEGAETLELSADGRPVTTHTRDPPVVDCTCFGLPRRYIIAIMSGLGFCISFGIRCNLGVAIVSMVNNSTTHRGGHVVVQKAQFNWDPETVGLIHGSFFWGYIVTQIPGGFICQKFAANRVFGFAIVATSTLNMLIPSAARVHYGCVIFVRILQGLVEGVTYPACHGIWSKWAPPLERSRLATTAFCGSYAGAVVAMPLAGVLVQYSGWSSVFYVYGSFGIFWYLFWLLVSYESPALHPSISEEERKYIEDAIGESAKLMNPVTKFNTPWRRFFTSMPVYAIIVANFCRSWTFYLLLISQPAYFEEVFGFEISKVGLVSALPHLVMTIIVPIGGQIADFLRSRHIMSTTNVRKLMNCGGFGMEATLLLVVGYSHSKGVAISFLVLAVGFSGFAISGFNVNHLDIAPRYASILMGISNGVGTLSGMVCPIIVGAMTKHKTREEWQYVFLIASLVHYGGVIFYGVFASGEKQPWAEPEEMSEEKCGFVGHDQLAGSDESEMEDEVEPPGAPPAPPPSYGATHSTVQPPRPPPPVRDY
Method: whole endosome patch clamp, outward glutamate currents on VGLUT1 | glutamate currents saturate with EC50376 µM

VGLUT1 [2] = molecular target: T1, VGLUT1; experiment: whole endosome patch clamp, block of Cl- and glutamate currents; format: biochemical

EC50 (VGLUT1 [1]) [µM]	IC50 (VGLUT1 [2]) [nM]	SMILES
376		N[C@@H](CCC(=O)O)C(=O)O [glutamate]
	~200	Cc1cc(-c2ccc(/N=N/c3ccc4c(S(=O)(=O)O)cc(S(=O)(=O)O)c(N)c4c3O)c(C)c2)ccc1/N=N/c1ccc2c(S(=O)(=O)O)cc(S(=O)(=O)O)c(N)c2c1O [Evans Blue]
